# Experimental data taken from US20100272680A1, “Piperidinyl Cyclic Amido Antiviral Agents” (priority 2009, published 2010).
# Assays:
# Assay type in all cases: cell-based
# HCV replicon = experiment: Replicon assay (Table 2, genotype not stated); settings: Hepatitis C virus, Table 2, first measurement, luciferase activity after 48 hours
# Description: Compounds were assayed for activity against HCV using the genotype 1a and 1b subgenomic replicon model systems. Stable cell lines bearing the genotype 1a and 1b replicons were used for screening of compounds. Both replicons are bicistonic and contain the firefly luciferase gene. The ET cell line is stably transfected with RNA transcripts harboring a I389luc-ubi-neo/NS3-3′/ET replicon with firefly luciferase-ubiquitin-neomycin phosphotransferase fusion protein and EMCV-IRES driven NS3-5B polyprotein containing the cell culture adaptive mutations (E1202G; T12801; K1846T) (Krieger at al, 2001 and unpublished). The genotype 1a replicon is a stable cell line licensed from Apath LLC, modified to contain the firefly luciferase gene. The cells were grown in DMEM, supplemented with 10% fetal calf serum, 2 mM Glutamine, Penicillin (100 IU/mL)/Streptomycin (100 μg/mL), 1× nonessential amino acids, and 250-500 μg/mL G418 (“Geneticin”). They were all available through Life Technologies (Bethesda, Md.). The cells were plated at 0.5×10^4 cells/well in 384 well plates containing compounds. The final concentration of compounds ranged between 0.03 μM to 50 μm and the final DMSO concentration of 0.5-1%.
# Luciferase activity was measured 48 hours later by adding a Steady glo (Promega, Madison, Wis.). Percent inhibition of replication data was plotted relative to no compound control. Under the same condition, cytotoxicity of the compounds was determined using cell titer glo (Promega, Madison, Wis). IC50s were determined from a 10 point dose response curve using 3-4-fold serial dilution for each compound, which spans a concentration range >1000 fold. BioAssay determines the level of inhibition for each compound by normalizing cross-talk corrected plate values against the negative […] controls to determine Percent Inhibition:
# These normalized values are exported to EC50 where they are plotted against the molar compound concentrations using the standard four parameter logistic equation: […]
# Some EC50 measurements were repeated a second time and for both 1A and 1B genotypes after those reported in Table 2 for compounds 101-108 and the repeated data was reported in Table 3.
# HCV Genotype 1A Replicon = experiment: Replicon assay, genotype 1a subgenomic replicon, luciferase readout; settings: Hepatitis C virus, 48 h, Table 3; luciferase activity after 48 hours
# In short: (§1)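 EC50 values came from four-parameter logistic fits of 10-point dose responses (3–4-fold steps, final 0.03–50 μM, 0.5–1% DMSO), normalized against no-compound and no-cell controls. Firefly luciferase was read 48 h after plating 0.5×10^4 replicon cells/well, 1b ET or 1a Apath-derived line.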
# HCV Genotype 1B Replicon = experiment: Replicon assay, genotype 1b subgenomic replicon (ET cell line), luciferase readout; settings: Hepatitis C virus, 48 h, Table 3; luciferase activity after 48 hours
# In short: as §1
Compound,EC50 (HCV replicon) [nM],EC50 (HCV Genotype 1A Replicon) [nM],EC50 (HCV Genotype 1B Replicon) [nM]
"O=C(c1nc2c(C(F)(F)F)cc(-c3ccoc3)cn2c1Cl)N1CCC(N2CCCC2=O)CC1 [Compound 101, 1-[1-(3-Chloro-6-furan-3-yl-8-trifluoromethyl-imidazo[1,2-a]pyridine-2-carbonyl)-piperidin-4-yl]-pyrrolidin-2-one]",57,–,–
"O=C(c1nc2c(C(F)(F)F)cc(-c3cn[nH]c3)cn2c1Cl)N1CCC(N2CCCC2=O)CC1 [Compound 102, 1-{1-[3-Chloro-6-(1H-pyrazol-4-yl)-8-trifluoromethyl-imidazo[1,2-a]pyridine-2-carbonyl]-piperidin-4-yl}-pyrrolidin-2-one]",683,–,–
"O=C(c1nc2c(C(F)(F)F)cc(-c3ccoc3)cn2c1Cl)N1CCC(N2CCOC2=O)CC1 [Compound 103, 3-[1-(3-Chloro-6-furan-3-yl-8-trifluoromethyl-imidazo[1,2-a]pyridine-2-carbonyl)-piperidin-4-yl]-oxazolidin-2-one]",26,10,20
"O=C(c1nc2c(C(F)(F)F)cc(-c3ccccc3)cn2c1Cl)N1CCC(N2CCOC2=O)CC1 [Compound 104, 3-[1-(3-Chloro-6-phenyl-8-trifluoromethyl-imidazo[1,2-a]pyridine-2-carbonyl)-piperidin-4-yl]-oxazolidin-2-one]",283,–,–
"O=C(c1nc2c(C(F)(F)F)cc(Br)cn2c1Cl)N1CCC(N2CCOC2=O)CC1 [Compound 105, 3-[1-(6-Bromo-3-chloro-8-trifluoromethyl-imidazo[1,2-a]pyridine-2-carbonyl)-piperidin-4-yl]-oxazolidin-2-one]",71,30,40
"C=C(C)c1cc(C(F)(F)F)c2nc(C(=O)N3CCC(N4CCOC4=O)CC3)c(Cl)n2c1 [Compound 106, 3-[1-(3-Chloro-6-isopropenyl-8-trifluoromethyl-imidazo[1,2-a]pyridine-2-carbonyl)-piperidin-4-yl]-oxazolidin-2-one]",5,10,20
"O=C(c1nc2c(C(F)(F)F)cc(C3=CCCC3)cn2c1Cl)N1CCC(N2CCOC2=O)CC1 [Compound 107, 3-[1-(3-Chloro-6-cyclopent-1-enyl-8-trifluoromethyl-imidazo[1,2-a]pyridine-2-carbonyl)-piperidin-4-yl]-oxazolidin-2-one]",16,–,–
"O=C(c1nc2c(C(F)(F)F)cc(-c3cn[nH]c3)cn2c1Cl)N1CCC(N2CCOC2=O)CC1 [Compound 108, 3-{1-[3-Chloro-6-(1H-pyrazol-4-yl)-8-trifluoromethyl-imidazo [1,2-a]pyridine-2-carbonyl]-piperidin-4-yl}-oxazolidin-2-one]",213,20,130
"CC(C)c1cc(C(F)(F)F)c2nc(C(=O)N3CCC(N4CCOC4=O)CC3)cn2c1 [Compound 196, 3-(1-{[6-(1-methylethyl)-8-(trifluoromethyl)imidazo[1,2-a]pyridin-2-yl]carbonyl}-4-piperidinyl)-1,3-oxazolidin-2-one]",–,1190,960
"O=C(c1nc2c(C(F)(F)F)cc(C3CC3)cn2c1Br)N1CCC(N2CCOC2=O)CC1 [Compound 197, 3-(1-{[3-bromo-6-cyclopropyl-8-(trifluoromethyl)imidazo[1,2-a]pyridin-2-yl]carbonyl}-4-piperidinyl)-1,3-oxazolidin-2-one]",–,10,10
"CC(=O)Nc1cc(C(F)(F)F)c2nc(C(=O)N3CCC(N4CCOC4=O)CC3)c(Cl)n2c1 [Compound 198, N-[3-chloro-2-{[4-(2-oxo-1,3-oxazolidin-3-yl)-1-piperidinyl]carbonyl}-8-(trifluoromethyl)imidazo[1,2-a]pyridin-6-yl]acetamide]",–,≥ 5010,≥ 5010
"O=C(c1nc2c(C(F)(F)F)cc(-c3ccoc3)cn2c1Cl)N1CCC(n2cn[nH]c2=O)CC1 [Compound 199, 4-(1-{[3-chloro-6-(3-furanyl)-8-(trifluoromethyl)imidazo[1,2-a]pyridin-2-yl]carbonyl}-4-piperidinyl)-2,4-dihydro-3H-1,2,4-triazol-3-one]",–,4790,5370
"O=C(c1nc2c(C(F)(F)F)cc(C3CC3)cn2c1Cl)N1CCC(N2C(=O)CCC2=O)CC1 [Compound 200, 1-(1-{[3-chloro-6-cyclopropyl-8-(trifluoromethyl)imidazo[1,2-a]pyridin-2-yl]carbonyl}-4-piperidinyl)-2,5-pyrrolidinedione]",–,170,30
"O=C(c1nc2c(C(F)(F)F)cc(C3CC3)cn2c1Cl)N1CCC(N2CCCC2=O)CC1 [Compound 201, 1-(1-{[3-chloro-6-cyclopropyl-8-(trifluoromethyl)imidazo[1,2-a]pyridin-2-yl]carbonyl}-4-piperidinyl)-2-pyrrolidinone]",–,100,30
"O=C(c1nc2c(C(F)(F)F)cc(C3CC3)cn2c1Cl)N1CCC(N2C(=O)COC2=O)CC1 [Compound 202, 3-(1-{[3-chloro-6-cyclopropyl-8-(trifluoromethyl)imidazo[1,2-a]pyridin-2-yl]carbonyl}-4-piperidinyl)-1,3-oxazolidine-2,4-dione]",–,20,10
"O=C(c1cn2cc(-c3ccoc3)cc(C(F)(F)F)c2n1)N1CCC(N2CCOC2=O)CC1 [Compound 203, 3-(1-{[6-(3-furanyl)-8-(trifluoromethyl)imidazo[1,2-a]pyridin-2-yl]carbonyl}-4-piperidinyl)-1,3-oxazolidin-2-one]",–,320,2340
"CC1(C)CN(C(=O)c2nc3c(C(F)(F)F)cc(-c4ccoc4)cn3c2Cl)CCC1N1CCOC1=O (centres unmarked) [Compound 204, 3-(1-{[3-chloro-6-(3-furanyl)-8-(trifluoromethyl)imidazo[1,2-a]pyridin-2-yl]carbonyl}-3,3-dimethyl-4-piperidinyl)-1,3-oxazolidin-2-one]",–,40,300
"CC1(C)CC(N2CCOC2=O)CCN1C(=O)c1nc2c(C(F)(F)F)cc(-c3ccoc3)cn2c1Cl (centres unmarked) [Compound 211, 3-(1-{[3-chloro-6-(3-furanyl)-8-(trifluoromethyl)imidazo[1,2-a]pyridin-2-yl]carbonyl}-2,2-dimethyl-4-piperidinyl)-1,3-oxazolidin-2-one]",–,580,340
"N#Cc1cc(C(F)(F)F)c2nc(C(=O)N3CCC(N4CCOC4=O)CC3)c(Cl)n2c1 [Compound 239, 3-chloro-2-{[4-(2-oxo-1,3-oxazolidin-3-yl)-1-piperidinyl]carbonyl}-8-(trifluoromethyl)imidazo[1,2-a]pyridine-6-carbonitrile]",–,800,7940
